How the values were obtained:
[1] = biological target: human norepinephrine transporter (Homo sapiens (Human), UniProt P23975); assay: Human NET (norepinephrine transporter) uptake assay; type: cell-based; details: read-out: hNET Ki
Outline: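 HEK293F cells transfected with human NET were thawed, plated at about 60,000 cells/well and held at 37 °C for at least 3 h. Compounds came from 10 mM DMSO stocks, with nomifensine as control, in 1×HBSS/0.02 M HEPES. Uptake was followed with a neurotransmitter transporter dye, dosed as % of vendor reconstitution, in triplicate.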

[2] = biological target: human dopamine transporter (Homo sapiens (Human), UniProt Q01959); assay: Human DAT (dopamine transporter) uptake assay; type: cell-based; details: read-out: hDAT Ki
Outline: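 Uptake inhibition was measured in HEK293F cells transfected with human DAT, plated at ~60,000 cells/well and settled ≥3 h at 37 °C. Compounds came from 10 mM DMSO stocks. Read-out was uptake of a fluorescent neurotransmitter transporter dye in HBSS with 0.02 M HEPES, with dye level given as % of vendor reconstitution; n=3.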

[3] = biological target: human serotonin transporter (Homo sapiens (Human), UniProt P31645); assay: Human SERT (serotonin transporter) uptake assay; type: cell-based; details: read-out: hSERT Ki
Outline: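 HEK293F cells transfected with human SERT, about 60,000 per well, settled for ≥3 h at 37° C before compound addition. Uptake was followed with a fluorescent transporter dye in HBSS with 0.02 M HEPES. Background came from 10 μM fluoxetine, nomifensine was the control, n=3.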

hERG = hERG (Homo sapiens (Human), UniProt Q12809); assay: Human ERG (hERG) assay, hERG currents in hERG-expressing CHO cells; type: cell-based; details: hERG-expressing CHO cells
CYP3A4 = CYP3A4 (Homo sapiens (Human), UniProt P08684); assay: Cytochrome P450 inhibition assay, recombinant CYP3A4 (BFC substrate); type: in vitro ADME; details: recombinant enzyme
CYP2D6 = CYP2D6 (Homo sapiens (Human), UniProt P10635); assay: Cytochrome P450 inhibition assay, recombinant CYP2D6 (MAMC substrate); type: in vitro ADME; details: recombinant enzyme
[4] = pKa of basic centres (Table 1); type: physicochemical; details: first base, e.g., an aliphatic primary, secondary, or tertiary amine; for pKa: read-out: pKa (Base 1)

Chain of CYP2D6 (P10635 whole entry): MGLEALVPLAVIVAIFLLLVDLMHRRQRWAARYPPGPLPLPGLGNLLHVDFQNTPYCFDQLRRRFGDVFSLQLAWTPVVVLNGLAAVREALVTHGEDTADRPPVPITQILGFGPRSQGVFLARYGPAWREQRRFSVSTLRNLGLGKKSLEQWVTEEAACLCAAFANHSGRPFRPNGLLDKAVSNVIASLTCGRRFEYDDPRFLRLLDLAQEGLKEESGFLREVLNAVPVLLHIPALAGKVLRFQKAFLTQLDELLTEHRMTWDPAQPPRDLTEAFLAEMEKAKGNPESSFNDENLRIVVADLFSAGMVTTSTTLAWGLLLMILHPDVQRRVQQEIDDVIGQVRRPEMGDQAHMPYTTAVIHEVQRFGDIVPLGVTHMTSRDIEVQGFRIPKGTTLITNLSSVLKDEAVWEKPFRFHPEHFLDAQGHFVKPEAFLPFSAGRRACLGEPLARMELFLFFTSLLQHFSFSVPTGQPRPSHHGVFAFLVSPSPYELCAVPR
Chain of hERG (Q12809 whole entry): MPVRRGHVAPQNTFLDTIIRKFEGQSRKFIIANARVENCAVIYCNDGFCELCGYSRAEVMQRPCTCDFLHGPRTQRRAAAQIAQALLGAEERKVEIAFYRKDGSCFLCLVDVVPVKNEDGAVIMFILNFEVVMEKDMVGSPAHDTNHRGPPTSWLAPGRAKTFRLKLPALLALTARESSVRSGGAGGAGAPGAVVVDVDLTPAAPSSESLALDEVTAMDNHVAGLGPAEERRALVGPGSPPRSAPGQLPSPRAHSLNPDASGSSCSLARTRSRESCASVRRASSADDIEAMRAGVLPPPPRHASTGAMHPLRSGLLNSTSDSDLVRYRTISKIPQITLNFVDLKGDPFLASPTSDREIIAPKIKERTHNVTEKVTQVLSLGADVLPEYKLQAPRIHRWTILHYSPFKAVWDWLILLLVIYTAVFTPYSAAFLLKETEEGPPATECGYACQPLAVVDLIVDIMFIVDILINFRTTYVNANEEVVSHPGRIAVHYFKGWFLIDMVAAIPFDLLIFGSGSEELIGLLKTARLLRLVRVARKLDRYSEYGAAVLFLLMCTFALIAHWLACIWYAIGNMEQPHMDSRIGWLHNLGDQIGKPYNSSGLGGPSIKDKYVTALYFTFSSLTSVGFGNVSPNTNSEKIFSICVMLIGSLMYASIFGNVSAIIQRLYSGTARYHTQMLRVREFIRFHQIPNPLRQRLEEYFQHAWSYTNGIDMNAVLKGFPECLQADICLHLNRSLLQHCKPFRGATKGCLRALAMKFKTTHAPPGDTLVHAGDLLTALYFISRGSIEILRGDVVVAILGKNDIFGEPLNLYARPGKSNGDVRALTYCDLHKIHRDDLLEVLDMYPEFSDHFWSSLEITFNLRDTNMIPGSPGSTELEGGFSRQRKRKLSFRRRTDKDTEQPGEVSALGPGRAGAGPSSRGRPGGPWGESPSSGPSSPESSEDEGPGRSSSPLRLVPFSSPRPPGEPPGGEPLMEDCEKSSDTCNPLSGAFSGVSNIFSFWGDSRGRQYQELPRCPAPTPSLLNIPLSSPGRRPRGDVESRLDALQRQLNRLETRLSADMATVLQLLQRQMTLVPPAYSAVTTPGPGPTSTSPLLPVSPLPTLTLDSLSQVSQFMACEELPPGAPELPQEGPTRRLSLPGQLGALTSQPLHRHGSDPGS
Chain of human serotonin transporter (P31645 whole entry): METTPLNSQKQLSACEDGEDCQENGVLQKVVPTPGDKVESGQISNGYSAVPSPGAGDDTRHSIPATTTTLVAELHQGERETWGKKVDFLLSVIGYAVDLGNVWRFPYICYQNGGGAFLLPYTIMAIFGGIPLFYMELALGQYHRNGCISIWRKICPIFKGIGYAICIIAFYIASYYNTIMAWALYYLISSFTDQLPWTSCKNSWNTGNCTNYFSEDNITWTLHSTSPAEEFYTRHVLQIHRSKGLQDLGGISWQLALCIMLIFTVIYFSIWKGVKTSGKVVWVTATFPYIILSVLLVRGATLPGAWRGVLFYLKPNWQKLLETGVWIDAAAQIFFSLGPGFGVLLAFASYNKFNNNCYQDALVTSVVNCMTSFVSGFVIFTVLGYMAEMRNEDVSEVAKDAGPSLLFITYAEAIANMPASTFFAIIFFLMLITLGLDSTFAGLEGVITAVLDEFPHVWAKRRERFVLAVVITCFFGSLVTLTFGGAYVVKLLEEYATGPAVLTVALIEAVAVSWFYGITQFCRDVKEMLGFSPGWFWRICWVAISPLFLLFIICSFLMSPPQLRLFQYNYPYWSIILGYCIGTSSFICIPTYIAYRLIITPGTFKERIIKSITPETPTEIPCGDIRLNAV
Chain of human norepinephrine transporter (P23975 whole entry): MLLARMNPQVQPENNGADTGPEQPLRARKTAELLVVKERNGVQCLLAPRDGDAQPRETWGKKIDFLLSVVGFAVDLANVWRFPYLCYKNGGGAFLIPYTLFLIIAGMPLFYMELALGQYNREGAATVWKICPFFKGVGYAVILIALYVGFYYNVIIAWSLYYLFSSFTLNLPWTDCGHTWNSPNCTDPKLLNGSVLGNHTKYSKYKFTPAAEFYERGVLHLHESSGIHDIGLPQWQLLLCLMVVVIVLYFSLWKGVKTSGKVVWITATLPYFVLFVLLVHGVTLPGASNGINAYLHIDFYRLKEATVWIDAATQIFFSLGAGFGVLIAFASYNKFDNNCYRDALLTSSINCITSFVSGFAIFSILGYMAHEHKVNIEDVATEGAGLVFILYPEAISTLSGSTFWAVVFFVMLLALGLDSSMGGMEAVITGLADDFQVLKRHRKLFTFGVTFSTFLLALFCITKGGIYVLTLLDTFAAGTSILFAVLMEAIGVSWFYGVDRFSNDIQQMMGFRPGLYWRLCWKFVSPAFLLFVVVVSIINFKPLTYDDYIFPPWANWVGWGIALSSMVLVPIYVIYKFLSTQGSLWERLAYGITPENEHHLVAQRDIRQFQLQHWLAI
Chain of human dopamine transporter (Q01959 whole entry): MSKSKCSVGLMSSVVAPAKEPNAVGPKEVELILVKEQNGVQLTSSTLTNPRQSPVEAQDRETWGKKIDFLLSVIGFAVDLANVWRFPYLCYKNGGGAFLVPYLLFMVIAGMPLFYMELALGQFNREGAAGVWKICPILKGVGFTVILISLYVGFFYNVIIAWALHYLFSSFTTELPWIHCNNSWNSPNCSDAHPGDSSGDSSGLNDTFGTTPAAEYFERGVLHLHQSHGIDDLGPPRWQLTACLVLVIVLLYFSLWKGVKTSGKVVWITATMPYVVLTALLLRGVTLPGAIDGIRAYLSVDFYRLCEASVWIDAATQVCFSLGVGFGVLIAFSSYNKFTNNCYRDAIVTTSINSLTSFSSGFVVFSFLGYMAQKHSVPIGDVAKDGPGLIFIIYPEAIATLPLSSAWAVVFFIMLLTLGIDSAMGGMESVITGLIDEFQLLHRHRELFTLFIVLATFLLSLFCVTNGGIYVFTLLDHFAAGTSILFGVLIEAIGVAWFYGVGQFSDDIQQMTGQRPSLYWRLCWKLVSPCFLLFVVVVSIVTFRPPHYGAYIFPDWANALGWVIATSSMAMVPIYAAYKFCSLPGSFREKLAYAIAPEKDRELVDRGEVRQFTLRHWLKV
Chain of CYP3A4 (P08684 whole entry): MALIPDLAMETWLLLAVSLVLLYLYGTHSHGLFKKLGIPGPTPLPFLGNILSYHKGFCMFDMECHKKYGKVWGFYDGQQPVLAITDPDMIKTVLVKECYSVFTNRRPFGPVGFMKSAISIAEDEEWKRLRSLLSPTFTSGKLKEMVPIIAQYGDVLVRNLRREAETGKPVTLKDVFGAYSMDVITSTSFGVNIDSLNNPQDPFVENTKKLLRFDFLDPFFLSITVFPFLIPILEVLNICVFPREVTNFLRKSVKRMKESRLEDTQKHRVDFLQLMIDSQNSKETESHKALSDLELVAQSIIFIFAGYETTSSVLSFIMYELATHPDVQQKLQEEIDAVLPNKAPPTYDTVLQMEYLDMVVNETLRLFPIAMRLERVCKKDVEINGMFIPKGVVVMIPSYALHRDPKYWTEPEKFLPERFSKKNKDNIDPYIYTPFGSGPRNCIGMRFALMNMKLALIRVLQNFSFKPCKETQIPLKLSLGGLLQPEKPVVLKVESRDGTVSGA

Ki [1] [nM] | Ki [2] [nM] | Ki [3] [nM] | IC50 (CYP3A4) [nM] | IC50 (CYP2D6) [nM] | pKa [4] | SMILES | IC50 (hERG) [nM] | pKa (Base 1) [4]
252 | 139 | 36.6 | 20000 | 3900 | 8 | NC[C@@H](c1ccc2ccccc2c1)C(O)c1ccncc1Cl (stereo partly drawn) [Compound 118] | 24000 | 
6 | 56.8 | 7.8 | 9900 | 220 | 10.1 | CNCC(Cc1ccccc1C)c1ccc2ccccc2c1 (stereo not drawn) [Compound 134] | 6200 | 
5 | 88.7 | 6.4 | 13000 | 620 | 10 | CNCC(Cc1ccc(C)s1)c1ccc2ccccc2c1 (stereo not drawn) [Compound 139] | 3100 | 
6.6 | 106 | 7.9 | 7600 | 160 | 9.7 | CNC[C@H](c1ccc2ccccc2c1)[C@H](O)c1ccc2c(c1)OCCO2 [Compound 143] | 15000 | 
9.3 | 144 | 10.1 | 1300 | 92 | 9.5 | CNC[C@H](c1ccc2ccccc2c1)[C@H](Cl)c1ccccc1 [Compound 146] | 15000 | 
37.1 | 40.3 | 38.4 | 6900 | 290 |  | CNC[C@@H](c1ccc(Cl)c(Cl)c1)[C@@H](O)c1cccc(SC)c1 [Compound 154] | 2200 | 9.4
17.2 | 48.5 | 22.4 | 9500 | 170 | 9.4 | CNC[C@H](c1ccc(Cl)c(Cl)c1)[C@H](O)c1ccccc1SC [Compound 156] | 4100 | 
6.3 | 55.4 | 38.6 | 3800 | 98 | 9.4 | CCc1ccccc1[C@@H](O)[C@H](CNC)c1ccc(Cl)c(Cl)c1 [Compound 158] | 4400 | 
9.1 | 83.5 | 9.2 | 3500 | 490 | 9.4 | CNC[C@H](c1ccc(Cl)c(Cl)c1)[C@H](O)c1ccccc1OC [Compound 160] | 8000 | 
41.6 | 113 | 78.1 | 5300 | 250 | 9.4 | CNC[C@H](c1ccc(Cl)c(Cl)c1)[C@H](O)c1ccccc1I [Compound 164] | 4100 | 
38.6 | 118 | 341 | 2900 | 81 | 9.4 | CNC[C@H](c1ccc(Cl)c(Cl)c1)[C@@H](O)c1cccc(I)c1 [Compound 165] | 3800 | 
10.8 | 132 | 18.8 | 20000 | 400 | 9.2 | CNC[C@H](c1ccc(Cl)c(Cl)c1)[C@H](O)c1cccc(OC)n1 [Compound 167] | 12000 | 
625 | 102 | 1260 | 200 | 970 | 9.4 | CNC[C@@H](c1ccc(Cl)c(Cl)c1)[C@@H](OC)c1cccc(NS(=O)(=O)C(F)(F)F)c1 [Compound 172] | 4700 | 

SMILES | Ki [1] [nM] | Ki [2] [nM] | Ki [3] [nM] | IC50 (CYP3A4) [nM] | IC50 (CYP2D6) [nM] | pKa [4] | IC50 (hERG) [nM] | pKa (Base 1) [4]
CNC[C@H](Cc1ccccc1O)c1ccc2ccccc2c1 [Compound 140] | 25.9 | 91.6 | 28.3 | 20000 | 860 | 10 | 6100 | 
CNC[C@@H](c1ccc(Cl)c(Cl)c1)[C@@H](O)c1ccsc1 [Compound 153] | 3.9 | 33.8 | 7.5 | 20000 | 1400 |  | 1600 | 9.5

Reference: patent US9944618B2, “Inhibiting neurotransmitter reuptake” (Mayo Foundation for Medical Education and Research, priority 2013, dated 2018)
